In patent US6506788B1, “N-linked urea or carbamate of heterocyclic thioesters for vision and memory disorders” (GPI Nil Holdings, Inc., priority 1998, dated 2003):
Read-outs that look alike come from different tables or passages of the source. Marks after values point to notes of the source that are not given here.

Columns and labels:
[1] = system: retinal ganglion cell axons; assay: Protection of retinal ganglion cell axons from degeneration following optic nerve transection (Table V); type: in vivo; conditions: ± SEM
Source text: Efficacy of representative compounds from different immunophilin ligand series in protecting retinal ganglion cell axons from degeneration following optic nerve transection is set forth in Table V.
Efficacy of representative compounds from different immunophilin ligand series in protecting retinal ganglion cell axons from degeneration following optic nerve transection

FKBP12 = FKBP12 (Homo sapiens, UniProt P62942); assay: Ki test procedure: inhibition of peptidyl-prolyl isomerase (rotamase) activity, chymotrypsin-coupled assay; type: biochemical
Source text: The inhibition of the prolyl peptidyl cis-trans isomerase activity of FKBP may be measured as an indicator of this affinity.
Inhibition of the peptidyl-prolyl isomerase (rotamase) activity of the compounds used in the inventive methods and pharmaceutical compositions can be evaluated by known methods described in the literature (Harding et al., Nature, 1989, 341:758-760; Holt et al. J. Am. Chem. Soc., 115:9923-9938).
The cis-trans isomerization of an alanine-proline bond in a model substrate, N-succinyl-Ala-Ala-Pro-Phe-p-nitroanilide, is monitored spectrophotometrically in a chymotrypsin-coupled assay, which releases para-nitroanilide from the trans form of the substrate. The inhibition of this reaction caused by the addition of different concentrations of inhibitor is determined, and the data is analyzed as a change in first-order rate constant as a function of inhibitor concentration to yield the apparent Ki values.
In a plastic cuvette are added […] of ice cold assay buffer (25 mM HEPES, pH 7.8, 100 mM NaCl), 10 mL of FKBP (2.5 mM in 10 mM Tris-Cl pH 7.5, 100 mM NaCl, 1 mM dithiothreitol), 25 mL of chymotrypsin (50 mg/ml in 1 mM HCl) and […] of test compound at various concentrations in dimethyl sulfoxide. The reaction is initiated by the addition of 5 mL of substrate (succinyl-Ala-Phe-Pro-Phe-para-nitroanilide, 5 mg/mL in 2.35 mM LiCl in trifluoroethanol).
The absorbance at 390 nm versus time is monitored for 90 seconds using a spectrophotometer and the rate constants are determined from the absorbance versus time data files.

[2] = Clearance (Table V comments, no method given); type: in vitro ADME
retina = assay: Streptozotocin induced diabetes: retinal neovascularization and neuron loss; type: in vivo; conditions: 28 day treatment beginning 8 weeks after onset of diabetes
aged mice = assay: Morris watermaze spatial learning and memory in aged rodents; type: in vivo, C57BL/6N-Nia mice; conditions: 10 mg/kg daily
Source text: The Morris watermaze is widely used for assessing spatial memory formation and retention in experimental animals. The test depends on the animal's ability to utilize spatial visual information in order to locate a submerged escape platform in a water tank. It is important that the tank itself be as devoid of specific visual features as possible—thus, it is always circular in shape, the sides are kept smooth and in uniform dull colors, and the water is rendered opaque with nontoxic watercolor pigment or powdered milk. This is to ensure that the animal navigates only by the use of more distant visual cues, or by the use of intra-maze cues specifically provided by the experimenter. The animals' path, speed, and swim time are tracked with a ceiling camera for later computerized analysis. Over the course of several successive trials, spatial learning can therefore be defined as a drop of distance swum, or time elapsed, from placement in the tank until escape onto the invisible platform. The procedure involved using three-month old (young) and 18-19 month old male C57BL/6N-Nia (aged) mice which habituated to the well known and conventional Morris watermaze during a 4 trials/day, 3-4 day visible platform training phase. […] Swim Distances (cm) were analyzed in a 7×5 ANOVA including Groups and Blocks (1-5) as factors in the analysis, treating Blocks as a repeated measure.

[3] = system: retinal ganglion cells and optic nerve; assay: Retinal ischemia (intraocular pressure raised above arterial blood pressure), examined 28 days later; type: in vivo, rats; conditions: toluidine blue staining; 28 days after 1 hour retinal ischemia
Source text: Retinal ganglion cells were retrogradely labeled in adult rats by bilateral injection of fluorogold in their lateral geniculate nuclei. Labeled ganglion cells in the normal rat retina appear as white profiles against the dark background (FIG. 1A). Complete retinal ischemia was produced by infusing normal saline solution into the retinal vitreous cavity of each eye until the intraocular pressure exceeded arterial blood pressure. 28 days after the ischemic episode extensive degeneration of retinal ganglion cell was evidenced by massive reduction in the density of fluorogold labeled cells (FIG. 1B).
Optic nerves from vehicle treated cases examined 28 days after a 1 hour retinal ischemic episode are characterized by a decreased density of optic nerve axons and the appearance of numerous degenerating myelin figures (bright white filled circles).

retinal ganglion cells = assay: Example 16: optic nerve transection, 28 days treatment, sacrifice at 90 days; type: in vivo, Sprague Dawley rats; conditions: 10 mg/kg/day s.c. for 28 days; 90 days after transection
Source text: Transection of the mammalian optic nerve results in a brief period of abortive regeneration, but the majority of axotomized neurons die and the axons from many persisting ganglion cells die back beyond the optic nerve head.

[4] = system: retinal ganglion cells and optic nerve axons; assay: In vivo retinal ganglion cell and optic nerve axon tests: optic nerve transection, 14 or 28 day treatment, sacrifice at 90 days; design: species or system Sprague Dawley rats; conditions: for ON head area (% sham) / ON Axon density / pattern of myelin degeneration, proximal stump (myelin basic protein immunohistochemistry) / pattern of myelin labeling and degenerating myelin figures, distal stump: 90 days after transection; for ON Axon density: RT97 labeled axons in 200 μm × 200 μm region; for increased ON axon density: adjusted for optic nerve diameter; for Distat optic nerve: shrinkage of cross sectional area: cross sectional area compared to sham control
Source text: All eyes and optic nerves stumps were removed.

[5] = Table V comments, read-out: Ki rotomase
[6] = apparent Ki, rotamase inhibition, read-out: Ki

Chain of FKBP12 (P62942 whole entry, species assumed): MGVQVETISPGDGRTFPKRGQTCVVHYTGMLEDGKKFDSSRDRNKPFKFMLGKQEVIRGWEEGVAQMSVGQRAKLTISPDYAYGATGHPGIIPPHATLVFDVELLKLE

## 3-(3-pyridyl)-1-propyl (2s)-1-(3,3-dimethyl-1,2-dioxopentyl)-2-pyrrolidinecarboxylate [GPI 1046]
[1]
  RT97-RGC axon density 11 days after ON transection (36 ON axon rescued): 60.5% ±3.9 SEM
FKBP12; [5]
  Ki: 7.5 nM
[2]
  Clearance: 63.8 µL/min

## O=C(SCCCc1ccccc1)C1CCCN1C(=O)NC12CC3CC(CC(C3)C1)C2 (stereo not shown) [B]
[1]
  RT97-RGC axon density 11 days after ON transection (36 ON axon rescued): 100.0% ±5.2% SEM
FKBP12; [5]
  Ki: 149 nM

## O=C(SCCCc1ccccc1)C1CCCN1S(=O)(=O)Cc1ccccc1 (stereo not shown) [C]
[1]
  RT97-RGC axon density 11 days after ON transection (36 ON axon rescued): 60.4% ±3.1% SEM
FKBP12; [5]
  Ki: 107 nM
[2]
  Clearance: 31.1 µL/min

## CCC(C)CNC(=O)N1CCC[C@H]1C(=O)SCCCc1cccnc1 (stereo partly drawn) [Compound 1, 3-(3-Pyridyl)-1-propylmercaptyl 2S-1-[(2-methylbutyl)carbamoyl]pyrrolidine-2-carboxylate]
FKBP12; [6]
  Ki: 1 to 50 nM

## CCC(C)(C)NC(=O)N1CCC[C@H]1C(=O)SCCCc1cccnc1 [Compound 2]
FKBP12; [6]
  Ki: 51 to 200 nM

## CCC(C)(C)NC(=O)N1CCCC1C(=O)SCCc1ccccc1 (stereo not shown) [Compound 4]
FKBP12; [6]
  Ki: 51 to 200 nM

## O=C(SCCCc1cccnc1)C1CCCN1C(=O)NC1CCCCC1 (stereo not shown) [Compound 6]
FKBP12; [6]
  Ki: 201 to 500 nM

## O=C(SCCCc1cccnc1)[C@@H]1CCCN1C(=S)NC1CCCCC1 [Compound 7, 3-(3-pyridyl)-1-propylmercaptyl 2S-1-[(cyclohexyl)thiocarbamoyl]-pyrrolidine-2-carboxylate]
FKBP12; [6]
  Ki: 51 to 200 nM

## CCC(C)(C)NC(=O)N1CCCCC1C(=O)SCCCc1ccccc1 (stereo not shown) [Compound 11]
FKBP12; [6]
  Ki: 51 to 200 nM

## O=C(SCCCc1ccccc1)C1CCCCN1C(=O)Nc1ccccc1 (stereo not shown) [Compound 12]
FKBP12; [6]
  Ki: 1 to 50 nM

## O=C(SC(CCc1ccccc1)CCc1ccccc1)C1CCCCN1C(=S)NC1CCCCC1 (stereo not shown) [Compound 15]
FKBP12; [6]
  Ki: 1 to 50 nM

## COc1ccc(CCCSC(=O)C2CCCCN2C(=O)NC2CCCCC2)cc1 (stereo not shown) [Compound 16]
FKBP12; [6]
  Ki: 51 to 200 nM

## O=C(OCCCCc1ccccc1)[C@@H]1CCCCN1S(=O)(=O)Cc1ccccc1 [D]
[1]
  RT97-RGC axon density 11 days after ON transection (36 ON axon rescued): 58.4% ±6.4% SEM

## CCC(C)(C)C(=O)C(=O)N1CCS[C@H]1C(=O)OCCCc1cccnc1 [F]
[1]
  RT97-RGC axon density 11 days after ON transection (36 ON axon rescued): 55.1% ±5.9% SEM

## CCC(C)(C)C(=O)C(=O)N1CCC[C@H]1C(=O)OCCCc1cccnc1 [GPI 1046, 3-(3-pyridyl)-1-propyl (2s)-1-(3,3-dimethyl-1,2-dioxopentyl)-2-pyrrolidinecarboxylate]
retina
  neuronal loss in the ONL: did not appear to protect against neuronal loss
retina; vs streptozotocin/vehicle controls
  loss of neurons in the INL and GCL: appeared to decrease the loss of neurons
Aged mice; F1.69=3.09, P=0.08
  difference between young and aged impaired treated groups during retention phase: no longer any statistically significant difference
Aged mice; aged impaired mice, retention testing after 3 weeks of dosing
  spatial memory performance (swim distance, retention testing): significantly enhanced spatial memory performance
[3]
  density of degenerating myelin figures in optic nerve: dramatically decreased
Retinal ganglion cells
  preservation of axons in the proximal stump (RT97 neurofilament): preserved the axons of virtually all protected neurons
[4]; ONT/14 days treatment
  ON head area (% sham): 76%
  ON Axon density: 569
  increased ON axon density: 1.5X
  Distat optic nerve: shrinkage of cross sectional area: did not protect against shrinkage of the distal stump
[4]; ONT/14 days treatment, cross sectional area multiplied by myelin density
  Distat optic nerve myclin basic protein Density (myelin level): slightly increase the density of myelin
[4]; ONT/28 days treatment
  ON head area (% sham): 95%*
  ON Axon density: significant increase
  increased ON axon density: 5.0 X
  Distat optic nerve: shrinkage of cross sectional area: prevented cross sectional shrinkage
[4]; first 14 days treatment
  pattern of myelin degeneration, proximal stump (myelin basic protein immunohistochemistry): did not alter the pattern of myelin degeneration
  pattern of myelin labeling and degenerating myelin figures, distal stump: density of degenerating myelin figures remained high
[4]; first 28 days treatment
  pattern of myelin degeneration, proximal stump (myelin basic protein immunohistochemistry): dramatic preservation of the fascicular staining pattern
  pattern of myelin labeling and degenerating myelin figures, distal stump: dramatic protection of the fascicular pattern of myelin labeling

## CCC(C)(C)C(=O)C(=O)N1CCCC[C@H]1C(=O)O [G]
[1]
  RT97-RGC axon density 11 days after ON transection (36 ON axon rescued): 34.0% ±4.8% SEM

## CCC(C)(C)C(=O)C(=O)N1CCCC[C@H]1C(N)=O [H]
[1]
  RT97-RGC axon density 11 days after ON transection (36 ON axon rescued): 30.3% ±8.0% SEM

## O=C(OCCCc1cccnc1)[C@@H]1CCCN1C(=S)NC1CCCCC1 [I]
[1]
  RT97-RGC axon density 11 days after ON transection (36 ON axon rescued): 23.8% ±5.3 SEM

## CCC(C)(C)C(=O)C(=O)N1CCC[C@H]1C(=O)CCCCc1cccnc1 [J]
[1]
  RT97-RGC axon density 11 days after ON transection (36 ON axon rescued): 15.8% ±4.8% SEM

## CCC(C)(C)C(=O)C(=O)N1CCCC[C@H]1C(=O)SCCC(c1ccccc1)c1ccccc1 [K]
[1]
  RT97-RGC axon density 11 days after ON transection (36 ON axon rescued): 13.0% ±4.2% SEM

## CCC(C)(C)C(=O)C(=O)N1CCCC1C(=O)O (stereo not shown) [L]
[1]
  RT97-RGC axon density 11 days after ON transection (36 ON axon rescued): 7.8% ±3.0% SEM
[2]
  Clearance: 5.2 µL/min

## CCC(C)(C)C(=O)C(=O)N1CCC[C@H]1C(=O)SCCC(c1ccccc1)c1ccccc1 [M]
[1]
  RT97-RGC axon density 11 days after ON transection (36 ON axon rescued): −6.3% +3.9% SEM
